The text below walks through data of patent US20130012465A1 (Boehringer Ingelheim International GmbH, priority 2009, published 2013).

Like-named read-outs stand apart in the source and are kept apart here. Bounds are passed on as bounds.

In series [1] the test system is triple negative mBC. The conditions noted are these: Cohort A. On the procedure: (§1) A Phase II, open-label, multicenter trial was conducted in Belgium and Germany. Two Cohorts of patients were included: • Cohort A: Patients with triple negative mBC • Cohort B: Patients with HER2-negative, HR-positive mBC. • Primary endpoint for Cohort A and B initially was objective response as determined by response evaluation criteria in solid tumours (RECIST) criteria, as described by P. Therasse et al., J Natl Cancer Inst 2000, 92, 205-216. For Cohort A this was modified by amendment to clinical benefit (CB), i.e. complete response (CR), partial response (PR) and stable disease (SD) for at least 4 courses. • Secondary endpoints were time to progression, progression-free survival (PFS), overall survival (OS), time to objective response, duration of objective response, safety and pharmacokintics (PK). Clinical benefit (CR, PR, SD) was a secondary endpoint for Cohort B. • A total of 80 patients was planned to be enrolled into the trial: 80, i.e. 40 patients per cohort. […] Additional predose plasma samples were taken on Day 15 of Course 1, on Day 1 of Course 2 and on Day 1 of all subsequent courses (Course 3 onwards).
(§2) Dose reduction to 40 mg/day and 30 mg/day was an option for patients experiencing certain drug-related AEs.
• HR-negative patients: estrogen receptor (ER) status and progesterone receptor (PgR) status must be assessed by immunohistochemistry (IHC) and Allred (Harvey J M et al., J Clin Oncol 1999, 17(5), 1474-1481).

Series [2] relates to HCC 1937. The series is described as follows: triple negative breast cell panel, EC50 2D/3D. It counts as cell-based. Conditions: Homo sapiens, HCC1937.
Series [3] has as its system MDA-MB-231. The series is described as follows: triple negative breast cell panel, EC50 2D/3D. It counts as cell-based. The conditions noted are these: Homo sapiens.
Series [4] deals with HER2-negative metastatic breast cancer. The series is described as follows: Phase II clinical study, all treated patients (safety, PK, exposure). It counts as in vivo, human. On the procedure:
as §1, with “Two Cohorts of patients were included: • Cohort A: Patients with triple negative mBC • Cohort B: Patients with HER2-negative, HR-positive mBC. • Primary endpoint for Cohort A and B initially was objective response as determined by response evaluation criteria in solid tumours (RECIST) criteria, as described by P. Therasse et al., J Natl Cancer Inst 2000, 92, 205-216.” left out
as §2

The test system of series [5] is BT 549. The series is described as follows: triple negative breast cell panel, EC50 2D/3D. It counts as cell-based. Conditions: Homo sapiens.
In series [6] the test system is MDA-MB-468. The series is described as follows: triple negative breast cell panel, EC50 2D/3D. It counts as cell-based. Conditions: Homo sapiens; MDA-MB-468, 3D.
In series [7] the test system is HCC 70. The series is described as follows: triple negative breast cell panel, EC50 2D/3D. The conditions noted are these: Homo sapiens, HCC70. It counts as cell-based.
Series [8] deals with BT20. The series is described as follows: triple negative breast cell panel, EC50 2D/3D. Conditions: Homo sapiens, BT-20. It counts as cell-based.
In series [9] the test system is HCC 1806. The series is described as follows: triple negative breast cell panel, EC50 2D/3D. The conditions noted are these: Homo sapiens, HCC1806. It counts as cell-based.
The subject of series [10] is SUM 149PT. The series is described as follows: triple negative breast cell panel, EC50 2D/3D. It counts as cell-based. Conditions: Homo sapiens, SUM149PT.
For series [11], the system named is HCC 1143. The series is described as follows: triple negative breast cell panel, EC50 2D/3D. It counts as cell-based. The conditions noted are these: Homo sapiens, HCC1143.
Series [12] deals with HER2-negative, HR-positive mBC. The series is described as follows: Phase II clinical study, Cohort B. It counts as in vivo, human. On the procedure:
as §1, §2
• Confirmed diagnosis of Stage IV HER2-negative metastatic breast cancer (HER22+ and fluorescence in situ hybridization-negative or HER21+ or negative) • Progression following no more than two lines of chemotherapy including adjuvant, not including hormone treatments for Cohort B • Age ≧18 years • Life expectancy of at least 6 months • Written informed consent • Eastern Cooperative Oncology Group (ECOG) performance score 0-2 • Measurable disease according to RECIST criteria • Availability of tumour samples (fresh or paraffin material) for EGFR-testing. • No prior treatment with EGFR/HER1 or HER2 inhibiting agent • Adequate liver, kidney and bone marrow function • No concomitant treatment with other investigational drugs • No other anti-cancer-therapy within four weeks prior to the first treatment with the trial drug. • Concurrent treatment with biphosphonates is allowed.
• ER-positive and/or PgR-positive patients: ER-status and PgR-status must be assessed by IHC and Allred (Harvey J M et al., J Clin Oncol 1999, 17(5), 1474-1481).

Series [13] has as its system CAMA-1. The series is described as follows: triple negative breast cell panel, EC50 2D/3D. It counts as cell-based. The conditions noted are these: Homo sapiens.
Series [14] has as its system SUM149 Xenografts. The series is described as follows: triple negative, EGFR positive SUM149 Xenografts in mice. It counts as in vivo.
The mark [15] stands for this setting: three patients with clinical benefit for >4 months.
Where [16] appears, read: HCC 1937, 2D, read-out: EC50 [nM] 2D.
[17] abbreviates: HCC 1937, 3D, read-out: EC50 [nM] 3D.
Where [18] appears, read: MDA-MB-231, 2D, read-out: EC50 [nM] 2D.
[19] abbreviates: MDA-MB-231, 3D, read-out: EC50 [nM] 3D.
[20] abbreviates: 50 treated patients, 50 mg/day oral.
Setting [21] is: BT 549, 2D, read-out: EC50 [nM] 2D.
Where [22] appears, read: HCC 70, 2D, read-out: EC50 [nM] 2D.
The mark [23] stands for this setting: HCC 70, 3D, read-out: EC50 [nM] 3D.
Setting [24] is: BT20, 2D, read-out: EC50 [nM] 2D.
[25] abbreviates: BT20, 3D, read-out: EC50 [nM] 3D.
The mark [26] stands for this setting: HCC 1806, 2D, read-out: EC50 [nM] 2D.
Where [27] appears, read: HCC 1806, 3D, read-out: EC50 [nM] 3D.
Where [28] appears, read: HCC 1143, 2D, read-out: EC50 [nM] 2D.
Where [29] appears, read: HCC 1143, 3D, read-out: EC50 [nM] 3D.
Where [30] appears, read: CAMA-1, 2D, read-out: EC50 [nM] 2D.
The mark [31] stands for this setting: CAMA-1, 3D, read-out: EC50 [nM] 3D.

Usually EC50 stands for the concentration giving half of the maximal effect. On to `CN(C)C/C=C/C(=O)Nc1cc2c(Nc3ccc(F)c(Cl)c3)ncnc2cc1O[C@H]1CCOC1` [BIBW 2992, 4-[(3-chloro-4-fluorophenyl)amino]-6-{[4-(N,N-dimethylamino)-1-oxo-2-buten-1-yl]amino}-7-((S)-tetrahydrofuran-3-yloxy)-quinazo line], for which the “patients discontinued due to disease progression” value was 19 patients in series [1], “Thirty-one” in [4] (all 50 treated patients) and 12 patients in series [12]. The “objective response (OR), RECIST” value is recorded as “No objective response” in series [1] (50 mg/day oral) and “No OR” in [12] (50 mg/day oral). For the same compound, the “patients remaining on treatment with SD for >4 cycles” value in [1] (50 mg/day oral) is on record as “three”. In addition, the “overall median PFS” value in series [1] (29 patients) stood at 53 days. Also, the “patients with a best response of SD” value in series [1] (29 patients included, 50 mg/day oral) is “Seven”; in series [12] (21 patients included, 50 mg/day oral), 5 patients. For the same compound, the “mean PFS” value in series [1] (setting [15]) is on record as 217 days. Besides, the “median PFS” value in series [1] (setting [15]) came out at 184 days. The EC50 in series [2] (setting [16]) was more than 4000 nM; in series [2] (setting [17]) it was more than 4000 nM; in series [3] (setting [18]), more than 10000 nM; in series [3] (setting [19]) it was 2150 nM; in series [5] (setting [21]) it was 2020 nM; in series [5] (BT 549, 3D, read-out: EC50 [nM] 3D), 956 nM. Further, the EC50 in series [6] was 1250 nM; in series [7] (setting [22]), 571 nM; in [7] (setting [23]), more than 1000 nM; in [8] (setting [24]), more than 4000 nM; in series [8] (setting [25]) it was 23 nM; in series [9] (setting [26]), more than 4000 nM. In addition, the EC50 in [9] (setting [27]) was 47 nM; in [10], 17 nM; in series [11] (setting [28]) it was more than 4000 nM; in series [11] (setting [29]), more than 1000 nM; in [13] (setting [30]), 234 nM; in [13] (setting [31]) it was 277 nM. The “patients discontinued due to dose-reducing toxicities” value in series [4] (50 treated patients) worked out at 15 patients. The “patients discontinued due to other AEs” value in series [4] (50 treated patients) is recorded as “four”. Moreover, the “patients discontinued treatment due to AEs” value in [4] (setting [20]) is on record as “Nineteen”. Also, the safety profile result in series [4] (setting [20]) is recorded as “safety profile similar to other EGFR TKIs”. Moreover, the “patients with SD for ≧4 cycles” value in series [12] (50 mg/day oral) stood at 1 patient.

As for `CCOc1cc2ncc(C#N)c(Nc3ccc(OCc4ccccn4)c(Cl)c3)c2cc1NC(=O)/C=C/CN(C)C` [HKI-272], the “T/C [%] Day 42” value in [14] (50 mg/kg/d (MTD)) is on record as 36%.

On to `C#Cc1cccc(Nc2ncnc3cc(OCCOC)c(OCCOC)cc23)c1` [erlotinib], for which the “T/C [%] Day 42” value in series [14] (75 mg/kg/d (MTD)) was determined as 6%.

Turning to `CS(=O)(=O)CCNCc1ccc(-c2ccc3ncnc(Nc4ccc(OCc5cccc(F)c5)c(Cl)c4)c3c2)o1` [lapatinib, reference compound], the “T/C [%] Day 42” value in [14] (2 × 100 mg/kg/d (MTD)) is 25%. Moreover, the EC50 was more than 4000 nM in series [2] (setting [16]); more than 4000 nM in series [2] (setting [17]); more than 10000 nM in series [3] (setting [18]); more than 4000 nM in series [3] (setting [19]); more than 1000 nM in series [5] (setting [21]); more than 1000 nM in [6]. The EC50 in series [7] (setting [22]) is more than 1000 nM; in series [7] (setting [23]), more than 1000 nM; in series [8] (setting [24]), more than 4000 nM; in series [8] (setting [25]), 467 nM; in [9] (setting [26]) it was more than 4000 nM; in series [9] (setting [27]) it was more than 4000 nM. For the same compound, the EC50 in series [10] was 1360 nM; in series [11] (setting [28]), more than 4000 nM; in [11] (setting [29]), more than 4000 nM; in series [13] (setting [30]) it was more than 1000 nM; in series [13] (setting [31]) it was 3010 nM.
